Structures can show the parent of a compound that is named as a salt.
Legend:
[1] = system: ovarian cancer; conditions: clinical; cited from earlier work
[2] = system: human pulmonary tumors; conditions: cited from earlier work
[3] = system: human disease; conditions: in vivo; cited from earlier work
[4] = system: N.C.I. animal anti-tumor screening systems; conditions: in vivo; cited from earlier work
[5] = system: advanced ovarian adenocarcinoma; conditions: concurrent use with cyclophosphamide, methotrexate and 5-fluorouracil; cited from earlier work
[6] = system: human renal tumors; conditions: cited from earlier work
[7] = system: A-498 renal carcinoma; assay: Inhibition of colony formation by human tumor cell line A-498 (renal carcinoma), long-term exposure; type: cell-based; conditions: Homo sapiens, A498, 216 h, 9 days, read-out: Percent survival (number of colonies in test dishes to colonies in control dishes times 100)
Procedure: (§1) Cytotoxic activity of O-HMM against in vitro human tumor cells was measured as inhibition of colony formation and the results expressed as a ratio of the number of colonies in test dishes to number of control dishes, times 100 (Table 4).
(§2) Inhibition of colony formation by human tumor
(§3) ^a Percent survival as measured by the number of colonies in test

[8] = system: A-204 rhabdomysarcoma; assay: Inhibition of colony formation by human tumor cell line A-204 (rhabdomysarcoma), long-term exposure; type: cell-based; conditions: Homo sapiens, A204, 216 h, 9 days, read-out: Percent survival (number of colonies in test dishes to colonies in control dishes times 100)
Procedure: as §1, §2, §3

[9] = system: A-101D melanoma; assay: Inhibition of colony formation by human tumor cell line A-101D (melanoma), long-term exposure; type: cell-based; conditions: Homo sapiens, A101D, 216 h, 9 days, read-out: Percent survival (number of colonies in test dishes to colonies in control dishes times 100)
Procedure: as §1, §2, §3

[10] = system: A-549 lung carcinoma; assay: Inhibition of colony formation by human tumor cell line A-549 (lung carcinoma), long-term exposure; type: cell-based; conditions: Homo sapiens, A549, 216 h, 9 days, read-out: Percent survival (number of colonies in test dishes to colonies in control dishes times 100)
Procedure: as §1, §2, §3

[11] = vs HMM; background statement; cited from earlier work
[12] = 150 ug/ml, solubility may be limiting
[13] = 175 ug/ml, solubility may be limiting
[14] = 225 ug/ml, solubility may be limiting

For CN(C)c1nc(N(C)C)nc(N(C)C)n1 [HMM, hexamethylmelamine], the “activity against ovarian cancer” value [1] is listed as “significant activity against ovarian cancer”, the “activity against human pulmonary tumors in mice” value [2] is listed as “active” and the “activity against human disease” value [3] is listed as “demonstrated activity against human disease”. The “activity in most N.C.I. animal anti-tumor screening systems” value [4] was “no demonstrated activity”, the “effectiveness against advanced ovarian adenocarcinoma” value [5] was “effective against advanced ovarian adenocarcinoma” and the “activity against human renal tumors in mice” value [6] was “active”.
Compound CN(C)c1nc(N(C)C)nc(N(C)C)n1 [HMM.HCl, reference compound] has a viability at 20 µg/mL ([7]; 20 ug/ml) of 97 ± 6%, a viability at 25 µg/mL ([7]; 25 ug/ml) of 90 ± 12% and a viability at 50 µg/mL ([7]; 50 ug/ml) of 75 ± 8%. The viability at 75 µg/mL ([7]; 75 ug/ml) was 61 ± 12%, the viability at 100 µg/mL ([7]; 100 ug/ml) was 50 ± 12% and the viability at 150 µg/mL [7, 12] was 42 ± 18%. For the same compound, the viability at 175 µg/mL [7, 13] was 43 ± 25%, the viability at 200 µg/mL ([7]; 200 ug/ml) was 42 ± 19% and the viability at 225 µg/mL [7, 14] was 41 ± 8%. The viability at 20 µg/mL ([8]; 20 ug/ml) was 104 ± 12%, the viability at 25 µg/mL ([8]; 25 ug/ml) was 85 ± 8% and the viability at 50 µg/mL ([8]; 50 ug/ml) was 78 ± 15%. The viability at 75 µg/mL ([8]; 75 ug/ml) was 62 ± 24%, the viability at 100 µg/mL ([8]; 100 ug/ml) was 55 ± 27% and the viability at 150 µg/mL [8, 12] was 35 ± 29%. For the same compound, the viability at 175 µg/mL [8, 13] was 38 ± 26%, the viability at 200 µg/mL ([8]; 200 ug/ml) was 38 ± 21% and the viability at 225 µg/mL [8, 14] was 40 ± 28%. The viability at 20 µg/mL ([9]; 20 ug/ml) was 101 ± 4%, the viability at 25 µg/mL ([9]; 25 ug/ml) was 98 ± 11% and the viability at 50 µg/mL ([9]; 50 ug/ml) was 92 ± 13%. The viability at 75 µg/mL ([9]; 75 ug/ml) was 73 ± 5%, the viability at 100 µg/mL ([9]; 100 ug/ml) was 53 ± 11% and the viability at 150 µg/mL [9, 12] was 37 ± 8%. For the same compound, the viability at 175 µg/mL [9, 13] was 38 ± 9%, the viability at 200 µg/mL ([9]; 200 ug/ml) was 33 ± 8% and the viability at 225 µg/mL [9, 14] was 29 ± 6%. The viability at 10 µg/mL ([10]; 10 ug/ml) was 95 ± 5%, the viability at 20 µg/mL ([10]; 20 ug/ml) was 93 ± 4% and the viability at 25 µg/mL ([10]; 25 ug/ml) was 91 ± 12%. It also gave a viability at 50 µg/mL ([10]; 50 ug/ml) of 95 ± 8%, a viability at 75 µg/mL ([10]; 75 ug/ml) of 87 ± 11% and a viability at 100 µg/mL ([10]; 100 ug/ml) of 86 ± 9%. The viability at 150 µg/mL [10, 12] was 74 ± 17%, the viability at 175 µg/mL [10, 13] was 59 ± 23% and the viability at 200 µg/mL ([10]; 200 ug/ml) was 61 ± 19%.
For CNc1nc(N(C)C)nc(N(C)C)n1 [pentamethylmelamine], the “solubility compared with HMM” value [11] is listed as “more soluble”.

From patent publication US4576945A, “Hexaalkylmelamine-amino-oxy compounds” (priority 1984, dated 1986)
